# Columns and labels:
# Format in all cases: cell-based
# p21 gene = assay: UVA-irradiated fibroblasts, special dosing: p21 PCR; settings: 10 mg/mL
# Method: (§1) Cell inoculation: After resuscitation of cells, when a plating rate reached about 60%, the cells were inoculated in 6-well plates, and incubated overnight in the CO2 incubator (37° C., 5% CO2).
# (§2) Dosing: When the plating rate of the cells in the 6-well plates reached about 50%˜60%, UVA irradiation of 30 J/cm^2 was performed on groups with UVA irradiation, and after the irradiation was finished, dosing was performed for the groups respectively, with each group in triplicate. […]
# (§3) Detection of gene expression: After the incubation was finished, PBS cleaning was performed twice with 1 mL/well, each well was added with 1 mL of RNAiso Plus, to pipet and lyse the cells, after which samples were collected. RNA was extracted and subjected to reverse transcription to cDNA to undergo fluorescence quantitative PCR detection, and result was calculated by the […] method.
# (§4) Statistical analysis of results: GraphPad Prism Program software was applied for plotting, and results were expressed as Mean±SD. Comparison between the groups was statistically analyzed using t-test. […]
# MMP-1 = assay: UVA-irradiated fibroblasts, special dosing (UVA continuous irradiation): MMP1 ELISA; settings: Filtrate 1%, Lysate 0.5%, Filtrate + lysate 0.3125%, Pro-xylane 10 mg/mL, Edelweiss 0.625%
# Method: as §1
# Dosing: When the plating rate of the cells in the 6-well plates reached about 50%˜60%, UVA irradiation of 30 J/cm^2 was performed on groups with UVA irradiation, and after the irradiation was finished, dosing was performed for the groups respectively, with each group in triplicate. The blank control group and the negative control group were added with 2 mL of the culture solution per well, the positive control group was added with 2 mL of the TGF-β1-containing culture solution per well, and the sample group was added with 2 mL of the test sample-containing culture solution at a corresponding concentration per well. After the dosing was completed, the 6-well plates were cultured in the CO2 incubator (37° C., 5% CO2) […] for 24 h. The above operations were repeated for 3 times. […]
# as §4
# NF-κB gene = assay: UVA-irradiated fibroblasts, special dosing: NF-κB PCR; settings: Filtrate 0.1%, Lysate 0.5%, Filtrate + lysate 0.3125%, Pro-xylane 10 mg/mL
# Method: as §1, §2, §3, §4
# p16 gene = assay: UVA-irradiated fibroblasts, special dosing: p16 PCR; settings: 10 mg/mL
# Method: as §1, §2, §3, §4
# PGE2 = assay: Keratinocyte-based inflammatory factor test (UVB), PGE2 ELISA; settings: keratinocytes, dosed 24 h, UVB 300 mJ/cm^2, 24 h, BC 165.31, NC 492.42, dexamethasone 0.01%, Filtrate 0.3125%, Lysate 1%, Filtrate + lysate 0.0781%, Centella asiatica 0.625 mg/mL
# Method: Cell inoculation: After resuscitation of cells, when a plating rate reached about 60%, the cells were inoculated in 6-well plates, and incubated overnight in a CO2 incubator (37° C., 5% CO2).
# Dosing: According to test groups in TABLE 19, when the plating rate of the cells in the 6-well plates reached about 30%˜50%, dosing was performed for the groups respectively, with each group in triplicate. The blank control group and the negative control group were added with 2 mL of a culture solution per well, the positive control group was added with 2 mL of a dexamethasone-containing culture solution per well, and the sample group was added with 2 mL of a test sample-containing culture solution at corresponding concentration per well. After the dosing was completed, the 6-well plates were cultured in the CO2 incubator (37° C., 5% CO2) for 24 h.
# UVB irradiation: after the cells are cleaned in PBS, according to the test groups, remaining groups other than the blank control group were all subjected to UVB irradiation, with an irradiation dosage of 300 mJ/cm^2. […]
# Statistical analysis of results: GraphPad Prism was applied for plotting, and results were expressed as Mean±SD. Comparison between the groups was statistically analyzed using t-test. […]
# IL-6 = assay: Macrophage-based inflammatory factor test (LPS), IL-6 ELISA; settings: macrophages, dosed 2 h, then LPS 22 h, BC 0.50, NC 2224.08, dexamethasone 0.01%, Filtrate 0.5%, CLR bifida ferment lysate 1%
# Method: (§5) <1> Formulation of working solution of positive control group (dexamethason): 2 μL of 10% mother liquor was sucked and dissolved in 2 mL of the culture solution to formulate 0.01% dexamethasone.
# (§6) <2> Formulation of 1 μg/mL LPS-containing working solution: 2 mg/mL LPS stock solution was diluted to 1 μg/mL with the test-substance working solution remaining, negative control working solution and positive control working solution, respectively, after the dosing.
# (§7) <1> Cell inoculation: the cells were inoculated in 6-well plates at an inoculation density of 2.2×10^5 per well, 2 mL of a cell suspension was added to each well, the inoculated cell culture plates continued to be cultured in the incubator for 24 h (5% CO2, 37° C.).
# (§8) <2> Original cell culture solution in the wells was sucked out and discarded. The sample group was added with 1.8 mL of the test substance-containing culture solution at a corresponding concentration per well; the negative control group was added with 1.8 mL of a solvent control culture solution per well; the positive control group was added with 1.8 mL of a positive control culture solution per well; and the blank control group was added with 1.8 mL of a normal culture solution per well.
# (§9) <3> After the dosing was completed, the 6-well plates were cultured in a cell incubator (5% CO2, 37° C.) for 2 h. […]
# IL-1β = assay: Macrophage-based inflammatory factor test (LPS), IL-1β ELISA; settings: macrophages, dosed 2 h, then LPS 22 h, BC 2.83, NC 76.40, dexamethasone 0.01%, Filtrate 0.5%, CLR bifida ferment lysate 1%
# Method: as §5, §6, §7, §8, §9
Compound,"p21 gene expression, Mean (p21 gene)",MMP1 Down-regulation Rate (vs NC) (MMP-1) [%],"MMP1 Mean Concentration (MMP-1; fibroblasts, UVA 30 J/cm^2 then dosing 24 h, repeated 3 times, ELISA, BC 359379.29, NC 1075513.35, PC TGFβ1 100 ng/mL) [pg/mL]","NF-κB gene expression, Inhibition Rate (vs NC) (NF-κB gene) [%]","NF-κB gene expression, Mean (NF-κB gene; fibroblasts, UVA 30 J/cm^2 then dosing 24 h, repeated 3 times, BC 1.00, NC 1.52, PC TGFβ1 100 ng/mL)",p16 Down-regulation Rate (vs NC) (p16 gene) [%],"p16 gene expression, Mean (p16 gene)",PGE2 Mean Concentration (PGE2) [pg/mL],IL-6 Mean Concentration (IL-6) [pg/mL],IL-1β Mean Concentration (IL-1β) [pg/mL]
CC(O)C[C@@H]1OC[C@@H](O)[C@H](O)[C@H]1O (stereo partly shown) [Pro-xylane],1.88,17.94,882584.62,65.13,0.53,35.37,1.06,–,–,–
C[C@@H]1C[C@H]2[C@@H]3CCC4=CC(=O)C=C[C@]4(C)[C@@]3(F)[C@@H](O)C[C@]2(C)[C@@]1(O)C(=O)CO [dexamethasone],–,–,–,–,–,–,–,159.23,193.04,8.51
